From article PMC12586182 (Frontiers in Oncology, 2025)

Key:
[1] = molecular target: T1, IKKε (Homo sapiens, UniProt Q14164); assay: Kinase panel profiling at 1 µmol/L (mobility shift assay, Carna); type: biochemical; conditions: 1 µmol/L of BTK inhibitor
T1 construct: purchased Carna Biosciences
T1 sequence (Q14164 1-716): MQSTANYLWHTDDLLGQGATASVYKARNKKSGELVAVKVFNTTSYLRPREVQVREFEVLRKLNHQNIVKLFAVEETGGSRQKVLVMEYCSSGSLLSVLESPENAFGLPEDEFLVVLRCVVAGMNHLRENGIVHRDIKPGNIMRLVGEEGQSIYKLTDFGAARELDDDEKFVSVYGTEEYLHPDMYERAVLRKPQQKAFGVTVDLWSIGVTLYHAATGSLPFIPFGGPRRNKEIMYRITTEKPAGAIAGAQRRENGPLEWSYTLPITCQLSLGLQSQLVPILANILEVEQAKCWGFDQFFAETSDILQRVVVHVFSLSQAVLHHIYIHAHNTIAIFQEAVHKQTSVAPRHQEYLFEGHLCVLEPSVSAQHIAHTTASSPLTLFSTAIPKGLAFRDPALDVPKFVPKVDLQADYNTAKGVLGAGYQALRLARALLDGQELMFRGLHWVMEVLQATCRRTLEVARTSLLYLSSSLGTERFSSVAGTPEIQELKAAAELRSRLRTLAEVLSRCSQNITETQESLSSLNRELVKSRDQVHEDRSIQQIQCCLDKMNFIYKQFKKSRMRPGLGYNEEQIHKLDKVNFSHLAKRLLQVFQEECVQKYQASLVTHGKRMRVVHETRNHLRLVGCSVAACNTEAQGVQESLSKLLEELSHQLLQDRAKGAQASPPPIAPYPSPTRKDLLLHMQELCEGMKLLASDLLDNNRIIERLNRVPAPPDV

[2] = molecular target: T2, HER2 (Homo sapiens, UniProt P04626); assay: as above; type: biochemical; conditions: 1 µmol/L of BTK inhibitor
T2 construct: purchased Carna Biosciences

[3] = molecular target: T3, CDK6/CycD3 (Homo sapiens, UniProt Q00534); assay: as above; type: biochemical; conditions: 1 µmol/L of BTK inhibitor
T3 construct: purchased Carna Biosciences

[4] = molecular target: EGFR (Homo sapiens, UniProt P00533); assay: as above; conditions: for Percentage inhibition of kinase enzyme activity: EGFR, 1 µmol/L of BTK inhibitor
[5] = molecular target: T4, MAPKAPK2 (Homo sapiens, UniProt P49137); assay: as above; type: biochemical; conditions: 1 µmol/L of BTK inhibitor
T4 construct: purchased Carna Biosciences

[6] = molecular target: T5, GSK3β (Homo sapiens, UniProt P49841); assay: as above; type: biochemical; conditions: 1 µmol/L of BTK inhibitor
T5 construct: purchased Carna Biosciences

[7] = molecular target: T6, PYK2 (Homo sapiens, UniProt Q14289); assay: as above; type: biochemical; conditions: 1 µmol/L of BTK inhibitor
T6 construct: purchased Carna Biosciences

[8] = molecular target: T7, KDR (Homo sapiens, UniProt P35968); assay: as above; type: biochemical; conditions: 1 µmol/L of BTK inhibitor
T7 construct: purchased Carna Biosciences

[9] = molecular target: T8, EPHB1 (Homo sapiens, UniProt P54762); assay: as above; type: biochemical; conditions: 1 µmol/L of BTK inhibitor
T8 construct: purchased Carna Biosciences
T8 sequence (P54762 18-984): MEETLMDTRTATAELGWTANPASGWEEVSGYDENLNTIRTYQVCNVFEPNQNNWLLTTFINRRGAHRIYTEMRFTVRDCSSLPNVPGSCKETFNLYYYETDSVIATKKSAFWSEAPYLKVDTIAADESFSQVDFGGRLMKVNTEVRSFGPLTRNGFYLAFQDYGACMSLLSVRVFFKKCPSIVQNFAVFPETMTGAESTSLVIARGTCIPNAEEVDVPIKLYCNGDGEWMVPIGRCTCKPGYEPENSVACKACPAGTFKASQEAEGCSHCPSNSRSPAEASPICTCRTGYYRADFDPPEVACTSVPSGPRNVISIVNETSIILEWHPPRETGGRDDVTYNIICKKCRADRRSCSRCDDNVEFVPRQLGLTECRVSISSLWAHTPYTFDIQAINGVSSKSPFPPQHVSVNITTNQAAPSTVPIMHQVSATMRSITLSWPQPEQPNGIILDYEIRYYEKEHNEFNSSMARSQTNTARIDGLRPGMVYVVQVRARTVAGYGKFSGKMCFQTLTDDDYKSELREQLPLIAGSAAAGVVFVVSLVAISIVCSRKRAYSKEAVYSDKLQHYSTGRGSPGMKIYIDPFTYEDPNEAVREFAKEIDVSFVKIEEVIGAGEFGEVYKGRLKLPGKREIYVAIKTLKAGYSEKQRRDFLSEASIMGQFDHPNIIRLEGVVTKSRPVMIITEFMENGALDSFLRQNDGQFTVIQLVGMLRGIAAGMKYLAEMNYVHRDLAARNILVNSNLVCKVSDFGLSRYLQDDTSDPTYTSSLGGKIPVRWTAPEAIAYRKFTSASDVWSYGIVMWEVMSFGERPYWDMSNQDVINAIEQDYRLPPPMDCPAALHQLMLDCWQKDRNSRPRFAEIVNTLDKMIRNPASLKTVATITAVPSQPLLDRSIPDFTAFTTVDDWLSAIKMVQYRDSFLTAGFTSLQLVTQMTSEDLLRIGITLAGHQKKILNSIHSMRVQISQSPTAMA

[10] = molecular target: T9, TXK (Homo sapiens, UniProt P42681); assay: as above; type: biochemical; conditions: 1 µmol/L of BTK inhibitor
T9 construct: purchased Carna Biosciences
T9 sequence (P42681 1-527): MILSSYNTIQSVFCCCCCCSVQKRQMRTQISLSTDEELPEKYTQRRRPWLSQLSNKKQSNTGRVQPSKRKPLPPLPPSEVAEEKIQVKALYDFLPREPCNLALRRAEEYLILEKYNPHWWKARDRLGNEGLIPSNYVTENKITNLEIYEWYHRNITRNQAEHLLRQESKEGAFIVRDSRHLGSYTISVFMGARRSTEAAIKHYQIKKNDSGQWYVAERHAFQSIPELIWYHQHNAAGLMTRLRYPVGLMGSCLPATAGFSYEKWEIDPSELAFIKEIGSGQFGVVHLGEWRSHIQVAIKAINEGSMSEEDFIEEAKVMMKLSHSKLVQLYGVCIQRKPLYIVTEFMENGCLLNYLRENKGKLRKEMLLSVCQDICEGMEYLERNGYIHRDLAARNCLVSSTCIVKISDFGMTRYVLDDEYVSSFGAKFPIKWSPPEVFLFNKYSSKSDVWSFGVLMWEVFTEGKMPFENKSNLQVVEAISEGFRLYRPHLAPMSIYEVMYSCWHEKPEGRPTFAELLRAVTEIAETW

[11] = molecular target: T10, ALK (Homo sapiens, UniProt Q9UM73); assay: as above; type: biochemical; conditions: 1 µmol/L of BTK inhibitor
T10 construct: purchased Carna Biosciences

[12] = molecular target: T11, FYN [isoform a] (Homo sapiens, UniProt P06241); assay: as above; type: biochemical; conditions: 1 µmol/L of BTK inhibitor
T11 construct: purchased Carna Biosciences

[13] = molecular target: FGFR1 (Homo sapiens, UniProt P11362); assay: Kinase enzyme activity assay (mobility shift assay, Carna); conditions: for Percentage inhibition of kinase enzyme activity: FGFR1, 1 µmol/L of BTK inhibitor
FGFR1, sequence (P11362 22-822): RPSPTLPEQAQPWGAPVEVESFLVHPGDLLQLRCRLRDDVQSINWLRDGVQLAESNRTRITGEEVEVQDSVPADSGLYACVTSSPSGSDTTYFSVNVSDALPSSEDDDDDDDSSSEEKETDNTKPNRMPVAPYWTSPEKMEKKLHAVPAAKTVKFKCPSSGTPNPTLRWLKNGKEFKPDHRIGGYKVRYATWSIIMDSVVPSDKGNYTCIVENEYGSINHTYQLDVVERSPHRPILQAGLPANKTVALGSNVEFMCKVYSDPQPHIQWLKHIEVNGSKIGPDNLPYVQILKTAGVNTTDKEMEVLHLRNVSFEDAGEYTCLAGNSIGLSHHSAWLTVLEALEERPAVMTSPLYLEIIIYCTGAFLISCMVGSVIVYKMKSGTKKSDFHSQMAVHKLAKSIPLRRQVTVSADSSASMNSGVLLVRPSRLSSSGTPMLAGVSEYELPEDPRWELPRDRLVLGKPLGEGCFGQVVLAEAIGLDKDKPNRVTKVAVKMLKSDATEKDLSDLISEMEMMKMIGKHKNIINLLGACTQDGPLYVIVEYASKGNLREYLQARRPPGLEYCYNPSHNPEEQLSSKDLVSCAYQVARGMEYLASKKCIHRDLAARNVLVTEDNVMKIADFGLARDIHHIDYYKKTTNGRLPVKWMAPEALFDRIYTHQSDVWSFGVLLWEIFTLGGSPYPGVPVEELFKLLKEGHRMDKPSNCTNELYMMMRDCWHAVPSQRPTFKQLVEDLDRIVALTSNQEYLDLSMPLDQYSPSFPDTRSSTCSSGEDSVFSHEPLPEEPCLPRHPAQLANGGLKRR

T4 sequence (P49137 whole entry): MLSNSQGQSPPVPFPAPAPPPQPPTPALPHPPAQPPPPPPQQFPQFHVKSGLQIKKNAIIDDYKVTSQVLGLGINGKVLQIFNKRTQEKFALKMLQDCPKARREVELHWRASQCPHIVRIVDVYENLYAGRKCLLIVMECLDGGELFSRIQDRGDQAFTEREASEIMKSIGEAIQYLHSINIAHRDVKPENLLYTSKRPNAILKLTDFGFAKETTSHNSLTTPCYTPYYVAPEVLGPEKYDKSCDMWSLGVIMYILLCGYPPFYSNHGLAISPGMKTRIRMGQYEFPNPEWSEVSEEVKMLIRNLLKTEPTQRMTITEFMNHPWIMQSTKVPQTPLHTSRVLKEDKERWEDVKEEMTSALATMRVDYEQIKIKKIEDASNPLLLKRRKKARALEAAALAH
T7 sequence (P35968 20-1356): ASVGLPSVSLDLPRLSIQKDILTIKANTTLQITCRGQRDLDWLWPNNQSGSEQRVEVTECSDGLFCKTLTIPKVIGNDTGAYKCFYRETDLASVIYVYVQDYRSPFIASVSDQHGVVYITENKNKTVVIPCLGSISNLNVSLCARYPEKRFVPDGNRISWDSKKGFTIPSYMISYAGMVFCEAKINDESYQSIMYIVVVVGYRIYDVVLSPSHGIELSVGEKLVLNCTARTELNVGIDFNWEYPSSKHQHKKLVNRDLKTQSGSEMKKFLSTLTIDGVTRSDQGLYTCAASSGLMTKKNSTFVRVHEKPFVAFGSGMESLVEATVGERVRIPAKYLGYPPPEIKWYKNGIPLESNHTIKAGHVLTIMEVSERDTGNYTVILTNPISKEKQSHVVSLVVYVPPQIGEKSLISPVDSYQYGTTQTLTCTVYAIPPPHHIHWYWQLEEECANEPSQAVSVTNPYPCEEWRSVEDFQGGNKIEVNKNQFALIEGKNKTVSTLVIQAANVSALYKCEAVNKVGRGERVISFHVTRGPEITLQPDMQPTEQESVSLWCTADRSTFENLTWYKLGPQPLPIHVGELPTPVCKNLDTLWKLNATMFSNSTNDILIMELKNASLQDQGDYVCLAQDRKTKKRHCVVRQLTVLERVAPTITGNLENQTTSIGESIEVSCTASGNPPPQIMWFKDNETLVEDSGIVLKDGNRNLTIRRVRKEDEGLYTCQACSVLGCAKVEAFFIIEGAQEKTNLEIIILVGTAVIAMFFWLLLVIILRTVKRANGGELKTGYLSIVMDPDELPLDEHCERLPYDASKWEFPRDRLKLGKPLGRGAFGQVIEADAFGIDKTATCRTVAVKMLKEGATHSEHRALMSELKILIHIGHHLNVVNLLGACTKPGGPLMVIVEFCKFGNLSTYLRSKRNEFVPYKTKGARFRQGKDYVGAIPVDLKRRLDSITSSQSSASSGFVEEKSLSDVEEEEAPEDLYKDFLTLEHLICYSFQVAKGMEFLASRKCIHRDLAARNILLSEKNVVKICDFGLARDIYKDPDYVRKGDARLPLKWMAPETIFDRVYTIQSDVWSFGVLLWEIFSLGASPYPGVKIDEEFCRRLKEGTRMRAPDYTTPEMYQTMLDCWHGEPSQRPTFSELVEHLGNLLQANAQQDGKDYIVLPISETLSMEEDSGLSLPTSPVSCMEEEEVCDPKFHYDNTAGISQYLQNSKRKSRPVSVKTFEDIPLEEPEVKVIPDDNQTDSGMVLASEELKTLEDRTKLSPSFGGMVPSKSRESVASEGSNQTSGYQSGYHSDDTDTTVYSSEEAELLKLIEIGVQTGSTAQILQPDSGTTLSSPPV
EGFR, sequence (P00533 25-1210): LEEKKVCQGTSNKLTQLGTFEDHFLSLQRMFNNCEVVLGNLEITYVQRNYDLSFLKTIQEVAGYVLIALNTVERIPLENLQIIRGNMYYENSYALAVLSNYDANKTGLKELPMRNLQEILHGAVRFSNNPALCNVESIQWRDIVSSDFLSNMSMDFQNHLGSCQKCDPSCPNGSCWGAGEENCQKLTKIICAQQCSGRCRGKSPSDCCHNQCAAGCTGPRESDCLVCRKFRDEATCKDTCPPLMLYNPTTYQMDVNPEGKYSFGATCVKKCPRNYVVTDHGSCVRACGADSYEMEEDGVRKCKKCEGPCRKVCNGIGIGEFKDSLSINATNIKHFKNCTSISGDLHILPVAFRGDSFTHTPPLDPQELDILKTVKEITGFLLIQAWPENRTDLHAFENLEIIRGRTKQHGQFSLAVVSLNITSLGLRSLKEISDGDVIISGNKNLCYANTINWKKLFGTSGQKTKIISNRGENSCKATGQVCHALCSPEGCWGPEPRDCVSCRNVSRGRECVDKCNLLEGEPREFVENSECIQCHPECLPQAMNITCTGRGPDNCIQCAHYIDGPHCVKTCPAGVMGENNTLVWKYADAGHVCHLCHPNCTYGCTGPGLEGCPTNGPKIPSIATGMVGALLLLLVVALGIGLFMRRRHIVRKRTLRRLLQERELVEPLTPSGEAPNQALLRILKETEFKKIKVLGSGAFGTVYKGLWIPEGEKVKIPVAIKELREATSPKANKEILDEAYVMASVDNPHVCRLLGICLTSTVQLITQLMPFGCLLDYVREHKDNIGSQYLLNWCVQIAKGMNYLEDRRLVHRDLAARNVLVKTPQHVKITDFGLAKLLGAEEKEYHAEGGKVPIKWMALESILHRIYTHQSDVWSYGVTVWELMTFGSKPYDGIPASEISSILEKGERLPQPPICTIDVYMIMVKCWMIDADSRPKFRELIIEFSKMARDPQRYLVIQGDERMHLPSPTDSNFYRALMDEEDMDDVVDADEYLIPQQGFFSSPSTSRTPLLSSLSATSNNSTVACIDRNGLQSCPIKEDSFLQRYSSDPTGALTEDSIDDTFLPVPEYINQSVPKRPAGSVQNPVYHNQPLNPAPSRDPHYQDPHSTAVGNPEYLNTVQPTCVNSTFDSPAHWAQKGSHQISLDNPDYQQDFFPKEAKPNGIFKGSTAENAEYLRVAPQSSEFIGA
T5 sequence (P49841 whole entry): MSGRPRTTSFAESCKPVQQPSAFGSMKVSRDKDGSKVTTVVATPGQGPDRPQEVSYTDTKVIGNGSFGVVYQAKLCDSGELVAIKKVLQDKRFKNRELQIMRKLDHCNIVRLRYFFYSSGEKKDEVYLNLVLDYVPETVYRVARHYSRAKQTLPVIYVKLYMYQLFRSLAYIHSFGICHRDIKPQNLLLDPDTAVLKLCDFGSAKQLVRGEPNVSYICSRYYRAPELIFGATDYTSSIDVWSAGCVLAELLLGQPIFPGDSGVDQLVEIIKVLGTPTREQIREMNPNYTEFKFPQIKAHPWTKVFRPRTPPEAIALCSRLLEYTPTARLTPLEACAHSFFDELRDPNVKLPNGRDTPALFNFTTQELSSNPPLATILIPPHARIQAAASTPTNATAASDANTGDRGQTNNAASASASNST
T3 sequence (Q00534 whole entry): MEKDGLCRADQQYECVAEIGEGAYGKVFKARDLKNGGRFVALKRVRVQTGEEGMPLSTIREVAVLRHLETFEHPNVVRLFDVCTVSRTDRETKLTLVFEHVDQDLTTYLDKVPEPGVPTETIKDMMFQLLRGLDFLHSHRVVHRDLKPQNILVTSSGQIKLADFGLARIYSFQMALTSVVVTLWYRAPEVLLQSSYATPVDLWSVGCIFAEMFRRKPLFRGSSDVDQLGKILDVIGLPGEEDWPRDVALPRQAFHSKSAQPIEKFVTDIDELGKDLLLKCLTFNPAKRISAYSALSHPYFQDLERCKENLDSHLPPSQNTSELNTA
T3 sequence (P30281 whole entry partner): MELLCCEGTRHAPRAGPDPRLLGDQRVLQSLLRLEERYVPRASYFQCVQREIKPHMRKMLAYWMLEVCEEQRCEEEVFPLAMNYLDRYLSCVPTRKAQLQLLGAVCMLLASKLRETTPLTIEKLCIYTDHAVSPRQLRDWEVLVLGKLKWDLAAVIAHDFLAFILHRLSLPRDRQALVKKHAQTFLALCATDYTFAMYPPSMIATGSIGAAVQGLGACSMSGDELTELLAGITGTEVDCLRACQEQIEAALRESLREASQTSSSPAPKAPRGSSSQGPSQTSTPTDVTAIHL

Question: With `CC#CC(=O)N1CCC[C@H]1c1nc(-c2ccc(C(=O)Nc3ccccn3)cc2)c2c(N)nccn12` [acalabrutinib] as the molecule, how does the “Percentage inhibition of kinase enzyme activity” value (from here on “Percentage inhibition”) [1] read?
Answer: Its value is 1.46%.

Question: What about the “Percentage inhibition” value [2] of the same molecule?
Answer: Its value is 16.11%.

Question: And the “Percentage inhibition” value [3]?
Answer: The value was 2.94%.

Question: And the “Percentage inhibition” value [4]?
Answer: The value was 19.39%.

Question: What about the “Percentage inhibition” value [5] of the same molecule?
Answer: The value was -20.51%.

Question: What about the “Percentage inhibition” value [6] of the same molecule?
Answer: The value was -2.39%.

Question: And the “Percentage inhibition” value [7]?
Answer: The value was -3.55%.

Question: And the “Percentage inhibition” value [8]?
Answer: Its value is 6.81%.

Question: What about the “Percentage inhibition” value [9] of the same molecule?
Answer: The value was -1.40%.

Question: And the “Percentage inhibition” value [10]?
Answer: Its value is 67.66%.

Question: And the “Percentage inhibition” value [11]?
Answer: Its value is 5.27%.

Question: And the “Percentage inhibition” value [12]?
Answer: The value was 5.84%.

Question: What about the “Percentage inhibition” value [13] of the same molecule?
Answer: The value was -2.28%.

Question: Which results are given for `C=CC(=O)N1CCC[C@@H](n2nc(-c3ccc(Oc4ccccc4)cc3)c3c(N)ncnc32)C1` [ibrutinib]?
Answer: Percentage inhibition of kinase enzyme activity [1]: -0.70%; Percentage inhibition of kinase enzyme activity [2]: 100.31%; Percentage inhibition of kinase enzyme activity [3]: 4.32%; Percentage inhibition of kinase enzyme activity [5]: -12.65%; Percentage inhibition of kinase enzyme activity [6]: -4.00%; Percentage inhibition of kinase enzyme activity [7]: 3.37%; Percentage inhibition of kinase enzyme activity [8]: 83.54%; Percentage inhibition of kinase enzyme activity [9]: 11.81%; Percentage inhibition of kinase enzyme activity [10]: 98.38%; Percentage inhibition of kinase enzyme activity [11]: 5.45%; Percentage inhibition of kinase enzyme activity [12]: 92.75%; Percentage inhibition of kinase enzyme activity [13]: 70.87%

Question: What does the source list for `O=C(c1ccc(Oc2ccccc2)cc1Cl)c1c[nH]c2ncnc(N[C@@H]3CC[C@@H](CO)OC3)c12` [nemtabrutinib]?
Answer: Percentage inhibition of kinase enzyme activity [1]: 11.64%; Percentage inhibition of kinase enzyme activity [2]: 99.89%; Percentage inhibition of kinase enzyme activity [3]: 0.23%; Percentage inhibition of kinase enzyme activity [4]: 99.77%; Percentage inhibition of kinase enzyme activity [5]: -7.90%; Percentage inhibition of kinase enzyme activity [6]: -7.92%; Percentage inhibition of kinase enzyme activity [7]: 100.08%; Percentage inhibition of kinase enzyme activity [8]: 80.64%; Percentage inhibition of kinase enzyme activity [9]: 63.64%; Percentage inhibition of kinase enzyme activity [10]: 97.01%; Percentage inhibition of kinase enzyme activity [11]: 50.65%; IC50 [13]: 134 nM; Percentage inhibition of kinase enzyme activity [13]: 46.81%

Question: For `C=CC(=O)N1CCC([C@@H]2CCNc3c(C(N)=O)c(-c4ccc(Oc5ccccc5)cc4)nn32)CC1` [zanubrutinib], which “Percentage inhibition” value [2] is on record?
Answer: Its value is 98.58%.

Question: And the “Percentage inhibition” value [7]?
Answer: Its value is 16.35%.

Question: What about the “Percentage inhibition” value [8] of the same molecule?
Answer: Its value is -4.47%.

Question: And the “Percentage inhibition” value [9]?
Answer: Its value is -1.07%.

Question: What about the “Percentage inhibition” value [10] of the same molecule?
Answer: The value was 89.43%.

Question: And the “Percentage inhibition” value [13]?
Answer: Its value is -5.28%.

Question: What does the source list for `COc1ccc(F)cc1C(=O)NCc1ccc(-c2nn([C@@H](C)C(F)(F)F)c(N)c2C(N)=O)cc1` [pirtobrutinib]?
Answer: Percentage inhibition of kinase enzyme activity [1]: 5.28%; Percentage inhibition of kinase enzyme activity [2]: 35.83%; Percentage inhibition of kinase enzyme activity [3]: -5.97%; Percentage inhibition of kinase enzyme activity [4]: 85.26%; inhibition at 1 µM ([4]; read-out: Inhibition of EGFR): > 75%; Percentage inhibition of kinase enzyme activity [5]: -13.00%; Percentage inhibition of kinase enzyme activity [6]: -23.01%; Percentage inhibition of kinase enzyme activity [7]: 7.26%; Percentage inhibition of kinase enzyme activity [8]: -1.66%; Percentage inhibition of kinase enzyme activity [9]: 2.51%; Percentage inhibition of kinase enzyme activity [10]: 43.03%; Percentage inhibition of kinase enzyme activity [11]: 6.67%; Percentage inhibition of kinase enzyme activity [12]: 12.27%; Percentage inhibition of kinase enzyme activity [13]: 3.30%
